Measurements: patent US4864023A, “Pyrido(3,2,1-IJ)-1,3,4-benzoxadiazine derivatives” (priority 1988, dated 1989)
In brackets after ≈: the same amount, converted by molar mass. Where two headings read alike, the source gives them in different places.

What was measured:
[1] = tested on: Myoplasma hominis NR 2952; assay: in vitro antibacterial activity, standard agar dilution method; assay type: cell-based; settings: read-out: minimum inhibitory concentration (MIC)
[2] = tested on: Bacteroides fragilis NR 2583; assay: as above; assay type: cell-based; settings: NR2583, anaerobic, read-out: minimum inhibitory concentration (MIC)
Escherichia coli ML4707 = assay: in vivo therapeutic efficacy, lethal systemic infection in mice; settings: Escherichia coli, 120 h, E. coli ML4707 i.p. infection, ICR mice, mortality 5 days, read-out: 50% effective dose (ED50)
Description: (§1) The in vivo antibacterial activities of pyrido[3,2,1-ij]-1,3,4-benzoxadiazine derivatives prepared by Example 5, Example 30, Example 65 and Example 66 as mentioned below were tested against lethal infection of Escherichia coli ML4707, Pseudomonas aeruginosa 4au542 and Streptococcus pneumoniae 6-001. ICR mice weighing about 20 g were infected by intraperitoneal injection of a corresponding bacterial suspension. The test compounds were administered orally or subcutaneously at the time of injection. […] The respective 50% effective dose (ED50, mg/kg) which protects 50% of the animals from death caused by infection, is shown in Table 3.

[3] = tested on: Streptococcus pneumoniae 6-001; assay: as above; settings: Streptococcus pneumoniae, 6001, po, 120 h; S. pneumoniae 6-001 i.p. infection, ICR mice, p.o. at time of injection, mortality 5 days; read-out: 50% effective dose (ED50)
Description: as §1

[4] = tested on: Pseudomonas aeruginosa 4au542; assay: as above; settings: po, 120 h, P. aeruginosa 4au542 i.p. infection, ICR mice, p.o. at time of injection, mortality 5 days, read-out: 50% effective dose (ED50)
Description: as §1

[5] = tested on: Pseudomonas aeruginosa A3; assay: in vitro antibacterial activity, standard agar dilution method; assay type: cell-based; settings: aerobic, read-out: minimum inhibitory concentration (MIC)
[6] = tested on: Alcaligenes faecalis IFO 13111; assay: as above; assay type: cell-based; settings: IFO13111, aerobic, read-out: minimum inhibitory concentration (MIC)
[7] = tested on: Bacillus subtilis PCI 219; assay: as above; assay type: cell-based; settings: PCI219, aerobic, read-out: minimum inhibitory concentration (MIC)
[8] = tested on: Fusobacterium varium ATCC 8501; assay: as above; assay type: cell-based; settings: ATCC8501, anaerobic, read-out: minimum inhibitory concentration (MIC)
[9] = ML4707, po, p.o. at time of injection
[10] = ML4707, sc, s.c. at time of injection

SMILES	MIC [1] [µg/mL]	MIC [2] [µg/mL]	ED50 (Escherichia coli ML4707; [9]) [mg/kg]	ED50 (Escherichia coli ML4707; [10]) [mg/kg]	ED50 [3] [mg/kg]	ED50 [4] [mg/kg]	MIC [5] [µg/mL]	MIC [6] [µg/mL]	MIC [7] [µg/mL]	MIC [8] [µg/mL]
CN1COc2c(N3CCC(N)C3)c(F)cc3c(=O)c(C(=O)O)cn1c23 (stereo not shown) [Example 30, 10-(3-amino-1-pyrrolidinyl)-9-fluoro-3-methyl-7-oxo-2,3-dihydro-7H-pyrido[3,2,1-ij]-1,3,4-benzoxadiazine-6-carboxylic acid]	0.1 (≈ 0.287 µM)	0.1 (≈ 0.287 µM)	0.62	0.1	65.9	57	0.05 (≈ 0.144 µM)	1.56 (≈ 4.48 µM)	0.025 (≈ 0.0718 µM)	
CN1CCN(c2c(F)cc3c(=O)c(C(=O)O)cn4c3c2OCN4C)CC1 [Example 5, 9-fluoro-3-methyl-10-(4-methyl-1-piperazinyl)-7-oxo-2,3-dihydro-7H-pyrido[3,2,1-ij]-1,3,4-benzoxadiazine-6-carboxylic acid]	0.1 (≈ 0.276 µM)	0.39 (≈ 1.08 µM)	0.11	0.06	10.3	13.4	0.2 (≈ 0.552 µM)	0.39 (≈ 1.08 µM)	0.05 (≈ 0.138 µM)	12.5 (≈ 34.5 µM)
